The subject of series [1] is HepG2. As to the kind of experiment: MTT cytotoxicity assay, HepG2. It is filed as cell-based. Particulars: human hepatoma cells. The method, then:
(§1) The cytotoxicity of these compounds was tested on five cells lines by the standard MTT assay. The human cancer cells lines (HepG2, HT-29, Hela, BGC-823) and MDCK cells were provided by the Chinese Academy of Medical Sciences Peking Union Medical College. The tumor cells were cultured in RPMI 1640 medium supplemented with 10% (v/v) fetal bovine serum and 1% (v/v) penicillin-streptomycin (Thermo Technologies, New York, NY, USA) at 37 °C in a humidified atmosphere with 5% CO2. The growing tumor cells at a density 3 × 10^3 cells/mL were exposed to various concentrations of the tested drugs and incubated in a 96-well microtiter plate for 72 h (37 °C, 5% CO2). After MTT solution (20 μL, 5 mg/mL) was added to each well, the plate was incubated for a further 4 h. Then the media was removed. Formazan crystals were dissolved with DMSO (150 μL). After mixing well, the absorbance was quantified at 490 nm with a BIORAD 550 spectrophotometer (Bio-rad Life Science Development Ltd., Beijing, China). Wells containing no drugs were used to be blanks. The IC50 values were defined as the concentration of compounds that produced a 50% reduction of surviving cells and calculated using the Logit-method. Tumor cell growth inhibitory rate was calculated in the following Equation (1): % inhibition = (1 − Sample group OD/Control group OD) × 100%(1)
(In general: Formazan colour is commonly taken as a measure of viable cells.)

The test system of series [2] is HT-29. As to the kind of experiment: MTT cytotoxicity assay, HT-29. The class given is cell-based. The note with it: human colorectal cancer cells. The method, then:
as §1

The subject of series [3] is Hela. The experiment in a line: MTT cytotoxicity assay, Hela. Particulars: 72 h, cervical cancer cells. It is filed as cell-based, human. The method, then: as §1
Series [4] has as its system BGC-823. The experiment in a line: MTT cytotoxicity assay, BGC-823. The class given is cell-based. Particulars: human gastric cancer cells. The method, then:
as §1

Series [5] deals with MDCK cells. As to the kind of experiment: MTT toxicity (nephrotoxicity) evaluation, MDCK. The class given is cell-based. The note with it: 72 h, Madin-Darby canine kidney cells. The method, then: as §1
Series [6] can be described thus: logP by shake flask-ultraviolet spectrophotometry. It is filed as physicochemical. Particulars: n-caprylic alcohol-water (octanol/water); pH 6.8, n-caprylic alcohol-water, shake flask-UV; read-out: logP (octanol-water partition coefficient). From the text:
Lipophilicity (ClogP) is used in rational drug design as a key factor related to the cell transmembrane transport or other biological processes. ClogP values can either be calculated experimentally or predicted by means of commercially available programs. In this work, ClogP values of the TOA-amino acid derivatives were predicted using Sybyl-X 2.0 (Tripos, Certara Inc., St. Louis, MO, USA). […] To determine the octanol-water partition coefficient (logP), a shake flask-ultraviolet spectrophotometry method was used to determine the concentration of 6a and TOA in the water phase and organic phase at pH 6.8 with n-caprylic alcohol-water as the simulation system. […] However, the better activity connected with the increases of these amino acid conjugates’ solubility is worthy of further study.

The subject of series [7] is mice. The note with it: via gavage in mice; earlier studies, no reference given; cited from earlier work.
Series [8] deals with NF-κB/p65 and COX-2. Also noted: method as in PMID 24147349. Particulars: S180 mice; cited from earlier work.
Series [9] relates to MDCK cells. The experiment in a line: Giemsa staining, MDCK morphology. It is filed as cell-based, canine. Particulars: 2 μM, 72 h, 200×. The method, then: (§2) HepG2 cells in logarithmic growth phase were cultured in 6-well plates for 24 h at 37 °C in a humidified atmosphere with 5% CO2. And then each group was treated with different concentrations of compound 6a for 72 h. The cell culture medium was discarded. And the cells were washed twice with PBS, kept in PBS/ethanol (1:1) for 2 min, fixated in ethanol for 10 min. After removing the ethanol, the cells were stained with Giemsa stain for 2 min and observed under inverted phase-contrast microscope at a magnification of 400×. MDCK cells in logarithmic growth phase were cultured in 6-well plates for 24 h at 37 °C in a humidified atmosphere with 5% CO2. The cells were treated with 2 μM of compound 6a and CDDP for 72 h. The same operation was experimented as described above, and the cells were observed under inverted phase-contrast microscope at a magnification of 200×.

Series [10] deals with HepG2, HT-29, Hela and BGC-823. As to the kind of experiment: MTT cytotoxicity, summary statements over the cell lines. The class given is cell-based, human. Particulars: Homo sapiens, HepG2, HT-29, Hela and BGC-823, MTT; read-out: IC50, cytotoxicity on all four cancer cell lines. The method, then:
as §1

Series [11] concerns HepG2 cells. As to the kind of experiment: Giemsa staining, HepG2 morphology. The class given is cell-based, human. The note with it: 1, 2 and 4 μM, 72 h, 400×. The method, then: as §2
Series [12] relates to HepG2 cells. As to the kind of experiment: DAPI staining, HepG2 nuclear changes. Particulars: 1, 2 and 4 μM, 72 h, 400×. It is filed as cell-based, human. The method, then:
HepG2 cells in logarithmic growth phase were allowed to grow in 6-well plates for 24 h at 37 °C in a humidified atmosphere with 5% CO2. And each group was treated with different concentrations of compound 6a for 72 h. Cell culture medium was discarded and the cells were washed twice with PBS. The cells were fixed with 4% paraformaldehyde (pH 7.4) for 15 min and then washed twice with PBS. With an excitation wavelength of 470 nm, 4',6-diamidino-2-phenylindole (DAPI, 600 nM, Molecular Probes/Invitrogen Life Technologies, Carlsbad, CA, USA) staining was then performed for 2 min and nuclear fragments were observed using inverted phase-contrast microscope at a magnification of 400×.

Series [13] is described as follows: MTT cytotoxicity, summary statements over the cell lines. It is filed as cell-based, human. The note with it: human (HepG2, HT-29, Hela, BGC-823); dog (MDCK), HepG2, HT-29, Hela, BGC-823 and MDCK cells, four cancer cell lines and MDCK, MTT; read-out: IC50, cytotoxicity on both cancer and MDCK cells. The method, then: as §1

The term IC50 denotes the concentration that gives 50% inhibition. One may read the logP as a log measure of how a compound divides between an organic and an aqueous phase. Consider `Cc1nc(C)c(COC(=O)[C@]23CCC(C)(C)CC2C2=CCC4[C@@]5(C)CC[C@H](O)C(C)(C)C5CC[C@@]4(C)[C@]2(C)CC3)nc1C` (stereo partly drawn) [TOA, 3β-Hydroxyolea-12-en-28-oic acid-3,5,6-trimethylpyrazine-2-methyl Ester], for which the IC50 in series [1] (HepG2, 72 h) was 21.4 µM; in series [2] (HT-29, 72 h), over 25 µM; in [3] (Homo sapiens) it was 8.68 µM; in [4] (BGC-823, 72 h), over 25 µM; in series [5] (Canis lupus familiaris, MDCK) it was over 25 µM. In addition, the logP in [6] came out at 6.11. In addition, the LD50 entry in series [7] is reported as “exceeded 6.0 g/kg”. The “Expression of NF-κB/p65 and COX-2” value in [8] is “prevented the expression”.
Consider `[NH2][Pt]([NH2])([Cl])[Cl]` [CDDP, cisplatin, reference compound], for which the IC50 in [1] (72 h) is 2.86 µM; in [2] (72 h), 6.11 µM; in [3] it was 9.84 µM; in [4] (72 h) it was 6.82 µM; in series [5], 3.69 µM. Further, the “Morphological changes of MDCK cells (Giemsa staining)” value in series [9] is “less density, larger volume, lighter nuclear staining and cellular atypia”.
A word on the melting point: it is the temperature, or range, at which the solid turns liquid. Molecule `Cc1nc(C)c(COC(=O)[C@]23CCC(C)(C)CC2C2=CCC4[C@@]5(C)CC[C@H](OC(=O)[C@@H]6CCCN6)C(C)(C)C5CC[C@@]4(C)[C@]2(C)CC3)nc1C` (stereo partly drawn) [Compound 6c, 3β-L-Proline ester olean-12-en-28-oic acid-3,5,6-trimethylpyrazin-2-methyl ester] came in with a melting point of 89.6 to 91.3 °C. Besides, in series [1] (HepG2, 72 h), it took 2.39 µM to reach half-maximal inhibition (IC50). In series [2] (HT-29, 72 h), the IC50 is 3.21 µM. The IC50 in series [3] (Homo sapiens) was determined as 6.75 µM. Moreover, half-maximal inhibition in series [4] (BGC-823, 72 h) (IC50) required 4.98 µM. The molecule also displayed an IC50 in [5] (Canis lupus familiaris, MDCK) of 5.03 µM. For the same molecule, the IC50 in series [10] was under 8 µM.
In turn, `Cc1nc(C)c(COC(=O)[C@]23CCC(C)(C)CC2C2=CCC4[C@@]5(C)CC[C@H](OC(=O)[C@H](C)N)C(C)(C)C5CC[C@@]4(C)[C@]2(C)CC3)nc1C` (stereo partly drawn) [Compound 6b, 3β-L-Alanine ester olean-12-en-28-oic acid-3,5,6-trimethylpyrazin-2-methyl ester] registered a melting point of 89.7 to 92.1 °C. In series [1] (HepG2, 72 h), this molecule gave an IC50 of 2.32 µM. In series [2] (HT-29, 72 h), this molecule gave an IC50 of 4.77 µM. The midpoint of inhibition in series [3] (Homo sapiens), the IC50, lay at 7.69 µM. In series [4] (BGC-823, 72 h), this molecule displayed an IC50 of 4.47 µM. The molecule also registered an IC50 in series [5] (Canis lupus familiaris, MDCK) of 5.12 µM. In addition, in series [10], the IC50 is under 8 µM.
On to `Cc1nc(C)c(COC(=O)[C@]23CCC(C)(C)CC2C2=CCC4[C@@]5(C)CC[C@H](OC(=O)[C@@H](N)CO)C(C)(C)C5CC[C@@]4(C)[C@]2(C)CC3)nc1C` (stereo partly drawn) [Compound 6l, 3β-L-Serine ester olean-12-en-28-oic acid-3,5,6-trimethylpyrazin-2-methyl ester], for which the melting point lay within 107.1 to 108.5 °C. The molecule also displayed an IC50 in [1] (HepG2, 72 h) of 4.78 µM. Half-maximal inhibition in series [2] (HT-29, 72 h) (IC50) was put at 4.83 µM. The same molecule came in with an IC50 in series [3] (Homo sapiens) of 5.22 µM. In series [4] (BGC-823, 72 h), this molecule returned an IC50 of 4.9 µM. In series [5] (Canis lupus familiaris, MDCK), this molecule returned an IC50 of 3.12 µM. Besides, the IC50 in series [10] was under 8 µM.
As for `Cc1nc(C)c(COC(=O)[C@]23CCC(C)(C)CC2C2=CCC4[C@@]5(C)CC[C@H](OC(=O)CN)C(C)(C)C5CC[C@@]4(C)[C@]2(C)CC3)nc1C` (stereo partly drawn) [Compound 6a, 3β-Glycine ester olean-12-en-28-oic acid-3,5,6-trimethylpyrazin-2-methyl ester], the IC50 in series [1] (HepG2, 72 h) turned out to be 2 µM; in [2] (HT-29, 72 h), 2.5 µM; in [3] (Homo sapiens), 3.26 µM; in [4] (BGC-823, 72 h) it was 3.06 µM; in series [5] (Canis lupus familiaris, MDCK), 4.88 µM. Further, the logP in [6] was found to be 4.3. Further, the “Morphological changes of HepG2 cells (Giemsa staining)” value in series [11] is “loss of intercellular contacts, lysis of nuclei, increased cell debris and membrane damage”. Besides, the “Morphological changes of MDCK cells (Giemsa staining)” value in [9] is given as “no significant morphological changes”. Moreover, in [12], the “Nuclear changes of HepG2 cells (DAPI staining)” value was “condensed chromatin, nuclear fragmentation and weak fluorescence”.
As to `Cc1nc(C)c(COC(=O)[C@]23CCC(C)(C)CC2C2=CCC4[C@@]5(C)CC[C@H](OC(=O)[C@@H](N)CCCCN)C(C)(C)C5CC[C@@]4(C)[C@]2(C)CC3)nc1C` (stereo partly drawn) [Compound 6g, 3β-L-Lysine ester olean-12-en-28-oic acid-3,5,6-trimethylpyrazin-2-methyl ester], the melting point was 87.5 to 88.2 °C. This molecule came in with an IC50 in series [1] (HepG2, 72 h) of 2.27 µM. The same molecule showed an IC50 in [2] (HT-29, 72 h) of 2.35 µM. The molecule also showed an IC50 in [3] (Homo sapiens) of 2.38 µM. The molecule further gave a half-maximal inhibitory concentration (IC50) in series [4] (BGC-823, 72 h) of 2.48 µM. In series [5] (Canis lupus familiaris, MDCK), this molecule came in with an IC50 of 2.31 µM. Besides, the IC50 at 72 h in series [13] was under 2.5 µM.

Source of the values: article PMC6271079, “Amino Acid Derivatives of Ligustrazine-Oleanolic Acid as New Cytotoxic Agents” (Molecules, 2014).
